Test: PEBCA pharmacokinetics and biodistribution study in rats (Cbz and metabolites by LC-MS/MS)
Assay type: in vivo, rat
Conditions: for detection of possible Cbz metabolite in samples: all tissue and serum samples after PEBCA, LC-MS/MS; for peak concentration ratio organ:blood, fold higher for Cbz than for IR780-oleyl: highest doses
Experimental: Male Wistar rats were purchased at 8 weeks of age from Janvier Labs (France). They were housed in groups of four in individually ventilated cages in a specific pathogen-free environment at 22–23 °C and 50–60% relative humidity, on a 12-h light/dark cycle and with 70 air changes per hour and free access to food and sterile water. They were fed RM1 expanded pellets (Special Diets Services, Essex, UK), and the cages were enriched with housing, nesting material and gnaw sticks. All institutional and national guidelines for the care and use of laboratory animals were followed. Experiments were performed in Norway.
During all experiments, the animals were anaesthetized by inhalation of 2–3% isoflurane (Baxter, Deerfield, IL, USA). Anaesthesia was maintained with isoflurane in 0.4 L/min O2 and 0.6 L/min N2O.
To perform the pharmacokinetics and biodistribution study, the animals were separated into 2 groups according to dose: • Low dose PEBCA-Cbz, 0.5 mg/kg Cbz (4.4 mg/kg NPs) • High dose PEBCA-Cbz, 3.5 mg/kg Cbz (30.5 mg/kg NPs)
Details about the treatment groups are available in Table 1. Before injection, the particles were diluted in 0.9% saline to a concentration that corresponded to an injection volume of 2 mL/kg. In addition to the treated animals, 6 sham-treated (injected with 0.9% saline 2 mL/kg) animals were used. The sham-treated animals were euthanized at 2, 4 and 14 days, two at each time point. Animals were injected intravenously once.
Blood samples on time points 1–30 min and 4 h (Table 2) were performed on conscious animals, and all other blood samples were collected during exsanguination. The leg of the animal was shaved to expose the saphenous vein. Petrolatum was applied to the shaved area and the saphenous vein was punctured using a 19G needle. Into tubes containing blood clotting activator, 300–500 µL blood was collected (Microvette 500 Serum, Sarstedt AG & Co. KG, Germany). The tubes were turned 3–4 times, left for 60 min in upright position at room temperature to allow clot formation before centrifugation at 10 000 rcf for 5 min. The serum was immediately transferred to new tubes and stored at − 80 °C until LC–MS/MS analysis.
Cbz was quantified by LC–MS/MS, using the same instrumentation and chromatographic column as described for IR-780-oleyl quantification above. […] The flow rate was constant at 0.5 mL/min and the injection volume was 1 µL. […] Similarly, Cbz-d6 and docetaxel-d5 internal standards were monitored at m/z 864.4 → 583.2 and 835.5 → 554.3, respectively.
7-Methyl-docetaxel was purchased from SynZeal Research (Moraiya, India, catalogue number SZ-D031010), 10-methyl-docetaxel from Eos Med Chem (Jinan, China, custom synthesis), docetaxel from Sigma (Fluka, product number 01885) and 7-epi-docetaxel from Santa Cruz Biotechnology (Dallas, USA, product number SC-210610).
The Cbz-d6 and docetaxel-d5 internal standards were purchased from Toronto Research Chemicals (Toronto, Canada, catalogue numbers C046502 and D494423, respectively). A mix of the two internal standards was added to all standards and samples to yield a final concentration of 50 ng/mL.

## CC(=O)O[C@@]12CO[C@@H]1C[C@@H](O)[C@@]1(C)C(=O)[C@H](O)C3=C(C)[C@@H](OC(=O)[C@H](O)[C@@H](NC(=O)OC(C)(C)C)c4ccccc4)C[C@@](O)([C@@H](OC(=O)c4ccccc4)[C@H]21)C3(C)C [7-epi-docetaxel]
rat
  detection of possible Cbz metabolite in samples: no 7-epi-docetaxel

## CO[C@H]1C[C@H]2OC[C@@]2(OC(C)=O)[C@H]2[C@H](OC(=O)c3ccccc3)[C@]3(O)C[C@H](OC(=O)[C@H](O)[C@@H](NC(=O)OC(C)(C)C)c4ccccc4)C(C)=C([C@@H](O)C(=O)[C@]12C)C3(C)C [7-methyl-docetaxel]
rat
  detection of possible Cbz metabolite in samples: No 7-methyl-docetaxel was observed in any sample

## CO[C@H]1C(=O)[C@@]2(C)[C@H]([C@H](OC(=O)c3ccccc3)[C@]3(O)C[C@H](OC(=O)[C@H](O)[C@@H](NC(=O)OC(C)(C)C)c4ccccc4)C(C)=C1C3(C)C)[C@]1(OC(C)=O)CO[C@@H]1C[C@@H]2O [10-m-Doc, 10-methyl-docetaxel]
Cbz metabolites after PEBCA, even at high dose administered, rat, negligible
  metabolite concentration in brain: 0.2 ng/g
After PEBCA, rat serum, found only up to the 15-min sampling point
  metabolite concentration in serum relative to Cbz in the same sample: ≤ 0.5%

## CO[C@H]1C(=O)[C@]2(C)[C@@H](OC)C[C@H]3OC[C@@]3(OC(C)=O)[C@H]2[C@H](OC(=O)c2ccccc2)[C@]2(O)C[C@H](OC(=O)[C@H](O)[C@@H](NC(=O)OC(C)(C)C)c3ccccc3)C(C)=C1C2(C)C [Cbz, cabazitaxel]
Cbz after PEBCA, in most cases, rat
  sampling point at which the organ:blood ratio reaches its peak: 24 h
Cbz after PEBCA, majority of organs and time points, rat
  dose response (concentration ratio normalized to injected dose): > 1
Cbz after PEBCA, serum, rat
  dose response (concentration ratio normalized to injected dose): < 1
Cbz measured after PEBCA high dose, 3.5 mg/kg Cbz (30.5 mg/kg NPs) i.v., rat, n = 4
  Lung Cmax: 7593 ng/g
All organs, rat (abstract)
  measured concentration ratio all organs vs. blood, fold higher for cabazitaxel as compared to IR780-oleyl: more than 50 fold
All tissues except liver, rat
  peak concentration ratio organ:blood, fold higher for Cbz than for IR780-oleyl: at least 100 fold
liver, rat
  peak concentration ratio organ:blood, fold higher for Cbz than for IR780-oleyl: about 50 fold
Within the first 4 h after PEBCA injection, rat serum
  decrease in serum concentration of Cbz: ~100 fold
